The source of these data is patent US20150284375A1 (AJINOMOTO CO., INC., priority 2012, published 2015).

The target of the experiment is T1, human TRPA1 (Homo sapiens, UniProt O75762).
T1 construct: expressed in transfected cells; host or cells: Human embryonic kidney-derived 293T cells, transiently transfected with the pcDNA3.1/zeo(+) human TRPA1 plasmid
Description: Measurement of TRPA1 antagonist activity (intracellular calcium increase, FLIPR, allylisothiocyanate stimulation). In kind it is cell-based. The conditions noted are these: allylisothiocyanate 20 μM stimulation, FLIPR calcium assay; read-out: antagonism hTRPA1. An outline of the steps:
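IC50 derives from a sigmoid fit of inhibition of the 5-min FLIPR fluorescence change evoked by 20 μM allylisothiocyanate, normalized between agonist and buffer responses. Test substance, diluted in HBSS/20 mM HEPES pH 7.2 plus 0.1% BSA, was applied 10 min beforehand at room temperature to Calcium4-loaded 293T cells transiently expressing human TRPA1.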
For orientation: Calcium assays in cells follow changes in intracellular calcium, usually with a dye or a luminescent sensor.

T1 sequence (O75762 whole entry): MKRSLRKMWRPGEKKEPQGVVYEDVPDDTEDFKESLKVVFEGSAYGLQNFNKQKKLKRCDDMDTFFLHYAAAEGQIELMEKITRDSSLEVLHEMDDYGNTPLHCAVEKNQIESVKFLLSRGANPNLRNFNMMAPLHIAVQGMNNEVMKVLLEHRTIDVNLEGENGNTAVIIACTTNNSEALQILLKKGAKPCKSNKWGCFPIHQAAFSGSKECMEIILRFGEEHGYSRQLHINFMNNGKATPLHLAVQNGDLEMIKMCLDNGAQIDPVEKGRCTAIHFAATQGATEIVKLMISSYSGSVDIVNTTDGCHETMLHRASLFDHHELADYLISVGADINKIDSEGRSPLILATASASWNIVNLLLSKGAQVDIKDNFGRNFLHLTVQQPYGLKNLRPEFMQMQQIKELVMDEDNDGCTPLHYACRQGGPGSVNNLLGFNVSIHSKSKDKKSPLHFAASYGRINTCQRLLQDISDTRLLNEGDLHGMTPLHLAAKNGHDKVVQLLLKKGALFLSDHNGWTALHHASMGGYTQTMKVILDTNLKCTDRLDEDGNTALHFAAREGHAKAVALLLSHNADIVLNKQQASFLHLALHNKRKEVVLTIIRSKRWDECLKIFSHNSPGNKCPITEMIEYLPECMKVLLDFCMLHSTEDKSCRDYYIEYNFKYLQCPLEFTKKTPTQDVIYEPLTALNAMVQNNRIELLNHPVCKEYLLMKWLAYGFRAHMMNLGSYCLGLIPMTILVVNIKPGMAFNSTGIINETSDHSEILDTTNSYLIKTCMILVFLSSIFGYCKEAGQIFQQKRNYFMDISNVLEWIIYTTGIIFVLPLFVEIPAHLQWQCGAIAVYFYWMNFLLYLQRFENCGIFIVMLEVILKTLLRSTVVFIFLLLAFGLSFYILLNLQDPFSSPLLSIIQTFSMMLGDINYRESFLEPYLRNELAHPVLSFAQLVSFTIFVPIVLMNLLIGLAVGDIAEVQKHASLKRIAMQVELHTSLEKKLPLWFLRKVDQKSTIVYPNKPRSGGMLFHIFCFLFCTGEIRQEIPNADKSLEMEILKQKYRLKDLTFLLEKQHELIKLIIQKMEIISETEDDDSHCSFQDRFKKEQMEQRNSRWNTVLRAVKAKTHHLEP

On to `O=C(NCc1cccc(Oc2ccc(C(F)(F)F)cc2)c1)[C@@H]1CCCN1S(=O)(=O)c1cccc(F)c1` [Example 186, (2S)-1-(3-fluorophenyl)sulfonyl-N-[[3-[4-(trifluoromethyl)phenoxy]phenyl]methyl]pyrrolidine-2-carboxamide], for which the IC50 was determined as 0.071 µM. Take `O=C(NCc1cccc(Oc2ccc(C(F)(F)F)cc2)c1)[C@@H]1CCCN1S(=O)(=O)c1ccc(F)c(F)c1` [Example 187, (2S)-1-(3,4-difluorophenyl)sulfonyl-N-[[3-[4-(trifluoromethyl)phenoxy]phenyl]methyl]pyrrolidine-2-carboxamide]: the IC50 is 0.06 µM. As for `O=C(NCc1cccc(Oc2ccc(C(F)(F)F)cc2)c1)[C@@H]1CCCN1S(=O)(=O)c1cc(F)cc(F)c1` [Example 188, (2S)-1-(3,5-difluorophenyl)sulfonyl-N-[[3-[4-(trifluoromethyl)phenoxy]phenyl]methyl]pyrrolidine-2-carboxamide], the IC50 came to 0.1 µM.

As for `O=C(NCc1cccc(Oc2ccc(C(F)(F)F)cc2)c1)[C@@H]1CCCN1S(=O)(=O)c1ccco1` [Example 189, (2S)-1-(2-furylsulfonyl)-N-[[3-[4-(trifluoromethyl)phenoxy]phenyl]methyl]pyrrolidine-2-carboxamide], the IC50 was 0.1 µM. As for `O=C(NCc1cccc(Oc2ccc(C(F)(F)F)cc2)c1)[C@@H]1CCCN1S(=O)(=O)c1ccsc1` [Example 190, (2S)-1-(3-thienylsulfonyl)-N-[[3-[4-(trifluoromethyl)phenoxy]phenyl]methyl]pyrrolidine-2-carboxamide], the figure is 0.035 µM. As for `O=C(NCc1cccc(OCc2ccc(C(F)(F)F)cc2)c1)[C@@H]1CCCN1S(=O)(=O)c1ccccc1` [Example 191, (2S)-1-(benzenesulfonyl)-N-[[3-[[4-(trifluoromethyl)phenyl]methoxy]phenyl]methyl]pyrrolidine-2-carboxamide], the IC50 was 0.066 µM. The same measure for `O=C(NCc1cccc(OCc2ccc(C(F)(F)F)cc2)c1)[C@@H]1CCCN1S(=O)(=O)c1cccc(F)c1` [Example 192, (2S)-1-(3-fluorophenyl)sulfonyl-N-[[3-[[4-(trifluoromethyl)phenyl]methoxy]phenyl]methyl]pyrrolidine-2-carboxamide]: 0.049 µM; for `O=C(NCc1cccc(OCc2ccc(C(F)(F)F)cc2)c1)[C@@H]1CCCN1S(=O)(=O)c1cccc(Cl)c1` [Example 193, (2S)-1-(3-chlorophenyl)sulfonyl-N-[[3-[[4-(trifluoromethyl)phenyl]methoxy]phenyl]methyl]pyrrolidine-2-carboxamide]: 0.26 µM. As to `N#Cc1cccc(S(=O)(=O)N2CCC[C@H]2C(=O)NCc2cccc(OCc3ccc(C(F)(F)F)cc3)c2)c1` [Example 194, (2S)-1-(3-cyanophenyl)sulfonyl-N-[[3-[[4-(trifluoromethyl)phenyl]methoxy]phenyl]methyl]pyrrolidine-2-carboxamide], the IC50 stood at 1.1 µM. `CC(=O)c1ccc(S(=O)(=O)N2CCC[C@H]2C(=O)NCc2cccc(OCc3ccc(C(F)(F)F)cc3)c2)cc1` [Example 195, (2S)-1-(4-acetylphenyl)sulfonyl-N-[[3-[[4-(trifluoromethyl)phenyl]methoxy]phenyl]methyl]pyrrolidine-2-carboxamide]: the IC50 stood at 1.7 µM. As for `COc1ccc(S(=O)(=O)N2CCC[C@H]2C(=O)NCc2cccc(OCc3ccc(C(F)(F)F)cc3)c2)cc1` [Example 196, (2S)-1-(4-methoxyphenyl)sulfonyl-N-[[3-[[4-(trifluoromethyl)phenyl]methoxy]phenyl]methyl]pyrrolidine-2-carboxamide], the figure is 0.64 µM; as for `COc1cccc(S(=O)(=O)N2CCC[C@H]2C(=O)NCc2cccc(OCc3ccc(C(F)(F)F)cc3)c2)c1` [Example 197, (2S)-1-(3-methoxyphenyl)sulfonyl-N-[[3-[[4-(trifluoromethyl)phenyl]methoxy]phenyl]methyl]pyrrolidine-2-carboxamide], 1.7 µM. As for `COc1ccccc1S(=O)(=O)N1CCC[C@H]1C(=O)NCc1cccc(OCc2ccc(C(F)(F)F)cc2)c1` [Example 198, (2S)-1-(2-methoxyphenyl)sulfonyl-N-[[3-[[4-(trifluoromethyl)phenyl]methoxy]phenyl]methyl]pyrrolidine-2-carboxamide], the figure is 3.9 µM; as for `O=C(NCc1cccc(OCc2ccc(C(F)(F)F)cc2)c1)[C@@H]1CCCN1S(=O)(=O)c1ccc(OC(F)F)cc1` [Example 199, (2S)-1-[4-(difluoromethoxy)phenyl]sulfonyl-N-[[3-[[4-(trifluoromethyl)phenyl]methoxy]phenyl]methyl]pyrrolidine-2-carboxamide], 2.2 µM; as for `O=C(NCc1cccc(OCc2ccc(C(F)(F)F)cc2)c1)[C@@H]1CCCN1S(=O)(=O)c1cccs1` [Example 200, (2S)-1-(2-thienylsulfonyl)-N-[[3-[[4-(trifluoromethyl)phenyl]methoxy]phenyl]methyl]pyrrolidine-2-carboxamide], 0.06 µM.

`O=C(NCc1cccc(OCc2ccc(C(F)(F)F)cc2)c1)[C@@H]1CCCN1S(=O)(=O)c1cccnc1` [Example 201, (2S)-1-(3-pyridylsulfonyl)-N-[[3-[[4-(trifluoromethyl)phenyl]methoxy]phenyl]methyl]pyrrolidine-2-carboxamide]: the IC50 was 0.12 µM. With `O=C(NCc1cccc(OCc2ccc(C(F)(F)F)cc2)c1)[C@@H]1CCCN1S(=O)(=O)c1ccccn1` [Example 202, (2S)-1-(2-pyridylsulfonyl)-N-[[3-[[4-(trifluoromethyl)phenyl]methoxy]phenyl]methyl]pyrrolidine-2-carboxamide], the IC50 was found to be 0.4 µM. The same measure for `Cc1ccc(S(=O)(=O)N2CCC[C@H]2C(=O)NCc2cccc(OCc3ccc(C(F)(F)F)cc3)c2)o1` [Example 203, (2S)-1-[(5-methyl-2-foryl)sulfonyl]-N-[[3-[[4-(trifluoromethyl)phenyl]methoxy]phenyl]methyl]pyrrolidine-2-carboxamide]: 0.17 µM; for `Cc1sccc1S(=O)(=O)N1CCC[C@H]1C(=O)NCc1cccc(OCc2ccc(C(F)(F)F)cc2)c1` [Example 204, (2S)-1-[(2-methyl-3-thienyl)sulfonyl]-N-[[3-[[4-(trifluoromethyl)phenyl]methoxy]phenyl]methyl]pyrrolidine-2-carboxamide]: 1 µM; for `O=C(NCc1cccc(OCc2ccc(C(F)(F)F)cc2)c1)[C@@H]1CCCN1S(=O)(=O)c1cnn(C(F)F)c1` [Example 205, (2S)-1-[1-(difluoromethyl)pyrazol-4-yl]sulfonyl-N-[[3-[[4-(trifluoromethyl)phenyl]methoxy]phenyl]methyl]pyrrolidine-2-carboxamide]: 0.28 µM. Consider `O=C(NCc1cccc(OCc2ccc(C(F)(F)F)cc2)c1)[C@@H]1CCCN1S(=O)(=O)c1cnc2ccccc2c1` [Example 206, (2S)-1-(3-quinolylsulfonyl)-N-[[3-[[4-(trifluoromethyl)phenyl]methoxy]phenyl]methyl]pyrrolidine-2-carboxamide], for which the IC50 was determined as 0.29 µM. In the case of `O=C(NCc1cccc(OCc2ccc(C(F)(F)F)cc2)c1)[C@@H]1CCCN1S(=O)(=O)c1ccc2ncccc2c1` [Example 207, (2S)-1-(6-quinolylsulfonyl)-N-[[3-[[4-(trifluoromethyl)phenyl]methoxy]phenyl]methyl]pyrrolidine-2-carboxamide], the IC50 was 1.2 µM.
